The text below walks through data of paper PMC4284807, “Activation of RidA chaperone function by N-chlorination” (Nature Communications, 2014).

One data set has as its target T1, IlvA (Escherichia coli, UniProt P04968).
T1 sequence (P04968 1-514): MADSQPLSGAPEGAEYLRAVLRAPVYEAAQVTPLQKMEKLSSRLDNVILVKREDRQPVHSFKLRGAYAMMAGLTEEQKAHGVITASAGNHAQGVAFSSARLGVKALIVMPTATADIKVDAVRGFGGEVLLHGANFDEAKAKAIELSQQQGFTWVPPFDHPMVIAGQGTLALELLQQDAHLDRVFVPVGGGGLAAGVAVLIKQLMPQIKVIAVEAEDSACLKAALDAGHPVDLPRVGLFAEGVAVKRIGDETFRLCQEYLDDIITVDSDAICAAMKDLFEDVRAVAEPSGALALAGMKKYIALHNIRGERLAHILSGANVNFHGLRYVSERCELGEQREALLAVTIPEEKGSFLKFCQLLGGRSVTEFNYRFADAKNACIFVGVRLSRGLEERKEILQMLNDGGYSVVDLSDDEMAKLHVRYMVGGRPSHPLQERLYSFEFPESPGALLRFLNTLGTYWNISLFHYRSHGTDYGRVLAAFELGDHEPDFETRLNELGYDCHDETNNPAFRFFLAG
The data set can be described thus: alpha-ketobutyrate formation at […] nm. It counts as biochemical. Conditions: 10 mM threonine, 0.9 μM IlvA, MES/HEPES/TAPS pH 7.5, 20 °C; accelerated by untreated RidA.

A further data set deals with T2, RidA (untreated) (Escherichia coli, UniProt P0AF93).
T2 construct: full-length recombinant RidA, 13,480 Da (fits loss of initiator Met), trimer; untreated
T2 sequence (P0AF93 2-128): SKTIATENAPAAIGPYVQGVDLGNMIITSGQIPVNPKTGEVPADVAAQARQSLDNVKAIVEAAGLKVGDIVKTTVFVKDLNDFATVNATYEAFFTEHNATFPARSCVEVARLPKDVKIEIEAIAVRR
Put plainly: fluorescence titration of dye with protein. It counts as binding. Conditions: protein varied 1-200 μM, 0.2 μM dye, 40 mM HEPES-KOH pH 7.4, emission 613 nm, hydrophobicity probe.

Data set [1] deals with the molecule itself. Put plainly: SEC; analytical gel filtration, Superdex 75 10/300 GL, flow rate 0.5 ml min^-1; untreated RidA or RidA treated with a 10-fold excess of HOCl for 5 min at 37 °C (HOCl removed). A general note: Size exclusion chromatography separates by hydrodynamic size, large species first.

As usually defined, the Kd is the free concentration of one partner at which half of the binding sites on the other are occupied at equilibrium, for simple one-to-one binding. A word on the stoichiometry N: it is the number of molecules, sites or subunits per partner or assembly.

`C[C@@H](O)[C@H](N)C(=O)O` [threonine]: the “alpha-ketobutyrate formation at 230 nm” value on IlvA is “α-ketobutyrate generation from threonine catalysed by threonine deaminase IlvA”.

In the case of `CCN(CC)c1ccc2nc3c4ccccc4c(=O)cc-3oc2c1` [Nile red], binding at RidA (untreated) was put at a Kd of 121 µM.

B1: E. coli RidA, untreated (natural protein, UniProt P0AF93 1-128, looked up)
chain: MSKTIATENAPAAIGPYVQGVDLGNMIITSGQIPVNPKTGEVPADVAAQARQSLDNVKAIVEAAGLKVGDIVKTTVFVKDLNDFATVNATYEAFFTEHNATFPARSCVEVARLPKDVKIEIEAIAVRR
notes: RidA of Escherichia coli, member of the YjgF/YER057c/UK114 family; mass of the unmodified full-length protein printed as 13,480 Da; The printed mass of 13,480 Da may mean that the first methionine is missing (surmise); also called RidA-UT; untreated RidA
As to B1, in data set [1], the “stoichiometry N” value was 3.

B2: HOCl-treated RidA (RidA_(HOCl)) (natural protein, E. coli, UniProt P0AF93 1-128, looked up)
chain: MSKTIATENAPAAIGPYVQGVDLGNMIITSGQIPVNPKTGEVPADVAAQARQSLDNVKAIVEAAGLKVGDIVKTTVFVKDLNDFATVNATYEAFFTEHNATFPARSCVEVARLPKDVKIEIEAIAVRR
modifications: N-chlorinated: up to seven chlorine atoms added (positions not mapped); up to five oxygen atoms added to methionine and cysteine residues
notes: RidA of Escherichia coli, treated with HOCl; The chlorinated residues are not identified; the authors suspect lysine, arginine and the N-terminus; also called N-chlorinated RidA; source: HOCl removed with Micro Bio-Spin columns
In the case of B2, the binding result in data set [1] was “binds”.
